In patent publication US8765728B2, “[1,5]-diazocin derivatives” (MelliTech, priority 2009, dated 2014):

What follows are compounds tested on Min6 cell (assay: Insulin secretion response of beta cell line to formula I compounds (insulin ELISA)). Conditions: rank according to % increase versus control at most effective dose.
Format: cell-based
Method in brief: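 After compound or vehicle exposure, Min6 cells were held 2 h in glucose-free medium and preincubated 30 min at 37° C in glucose-free KRBH (pH 7.4, 0.1% BSA). They were then incubated 30 min at 37° C in KRBH with varying glucose. Secreted insulin and acid-ethanol-extracted intracellular insulin were measured by ELISA.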
In the case of `O=C(Cc1ccc(F)cc1)N1CCC(=O)N(C2CC2)Cc2cc(F)ccc21` [Compound 71, 5-cyclopropyl-8-fluoro-1-(2-(4-fluorophenyl)acetyl)-2,3,5,6-tetrahydrobenzo[b][1,5]diazocin-4(1H)-one], the “Insulin secretion (Min6 cell) Range 1 to 5” value (“Insulin secretion” below) is reported as 4 (4: 140-170% of control). For `O=C1CCN(Cc2ccccc2)c2ccc(F)cc2CN1C1CC1` [Compound 72, 1-benzyl-5-cyclopropyl-8-fluoro-2,3,5,6-tetrahydrobenzo[b][1,5]diazocin-4(1H)-one], the “Insulin secretion” value was 3 (3: 120-140% of control). For `O=C1CCN(CCc2ccccc2)c2ccc(F)cc2CN1C1CC1` [Compound 73, 5-cyclopropyl-8-fluoro-1-phenethyl-2,3,5,6-tetrahydrobenzo[b][1,5]diazocin-4(1H)-one], the “Insulin secretion” value was 4 (4: 140-170% of control). For `O=C1CCN(CCCc2ccccc2)c2ccc(F)cc2CN1C1CC1` [Compound 74, 5-cyclopropyl-8-fluoro-1-(3-phenylpropyl)-2,3,5,6-tetrahydrobenzo[b][1,5]diazocin-4(1H)-one], the “Insulin secretion” value was 4 (4: 140-170% of control). In the case of `O=C(c1ccc(F)cc1)N1CCC(=O)N(C2CC2)Cc2cccnc21` [Compound 75, 5-cyclopropyl-1-(4-fluorobenzoyl)-2,3,5,6-tetrahydropyrido[2,3-b][1,5]diazocin-4(1H)-one], the “Insulin secretion” value is reported as 4 (4: 140-170% of control). `O=C(Cc1ccc(F)cc1)N1CCC(=O)N(C2CC2)Cc2cccnc21` [Compound 76, 5-cyclopropyl-1-(2-(4-fluorophenyl)acetyl)-2,3,5,6-tetrahydropyrido[2,3-b][1,5]diazocin-4(1H)-one] was tested, and the “Insulin secretion” value was 5 (5: >170% of control). With `O=C(c1cccnc1)N1CCC(=O)N(C2CC2)Cc2cccnc21` [Compound 77, 5-cyclopropyl-1-nicotinoyl-2,3,5,6-tetrahydropyrido[2,3-b][1,5]diazocin-4(1H)-one] the “Insulin secretion” value was 5 (5: >170% of control). With `O=C1CCNc2ccc(Cl)cc2CN1C1CC1` [Compound 78, 8-chloro-5-cyclopropyl-2,3,5,6-tetrahydrobenzo[b][1,5]diazocin-4(1H)-one] the “Insulin secretion” value was 3 (3: 120-140% of control). For `O=C1CCN(C[C@@H](O)COCc2ccccc2)c2ccc(Cl)cc2CN1C1CC1` [Compound 79, (R)-1-(3-(benzyloxy)-2-hydroxypropyl)-8-chloro-5-cyclopropyl-2,3,5,6-tetrahydrobenzo[b][1,5]diazocin-4(1H)-one], the “Insulin secretion” value was 1 (1: 90-110% of control). For `O=C1CCNc2ccc3c(c2CN1C1CC1)OCCO3` [Compound 80, 11-cyclopropyl-2,3,8,9,11,12-hexahydro[1,4]dioxino[2,3-h][1,5]benzodiazocin-10(7H)-one], the “Insulin secretion” value was 3 (3: 120-140% of control). For `O=C1CCN(CC(O)COc2ccccc2)c2ccc(Cl)cc2CN1C1CC1` (centres unmarked) [Compound 81, 8-chloro-5-cyclopropyl-1-(2-hydroxy-3-phenoxypropyl)-2,3,5,6-tetrahydrobenzo[b][1,5]diazocin-4(1H)-one], the “Insulin secretion” value was 1 (1: 90-110% of control). `O=C(CN1CCC(=O)N(C2CC2)Cc2cc(Cl)ccc21)c1ccc(Cl)cc1` [Compound 82, 8-chloro-1-(2-(4-chlorophenyl)-2-oxoethyl)-5-cyclopropyl-2,3,5,6-tetrahydrobenzo[b][1,5]diazocin-4(1H)-one] was tested, and the “Insulin secretion” value was 1 (1: 90-110% of control). In the case of `O=C(CN1CCC(=O)N(C2CC2)Cc2cc(Cl)ccc21)c1cccc(F)c1` [Compound 83, 8-chloro-5-cyclopropyl-1-(2-(3-fluorophenyl)-2-oxoethyl)-2,3,5,6-tetrahydrobenzo[b][1,5]diazocin-4(1H)-one], the “Insulin secretion” value is reported as 1 (1: 90-110% of control). For `COc1ccc2c(c1)CN(C1CC1)C(=O)CCN2C(=O)c1ccno1` [Compound 84, 5-cyclopropyl-1-(isoxazole-5-carbonyl)-8-methoxy-2,3,5,6-tetrahydrobenzo[b][1,5]diazocin-4(1H)-one], the “Insulin secretion” value was 1 (1: 90-110% of control). With `O=C1CCN(CC(O)c2ccc(Cl)cc2)c2ccc(Cl)cc2CN1C1CC1` (centres unmarked) [Compound 85, 8-chloro-1-(2-(4-chlorophenyl)-2-hydroxyethyl)-5-cyclopropyl-2,3,5,6-tetrahydrobenzo[b][1,5]diazocin-4(1H)-one] the “Insulin secretion” value was 1 (1: 90-110% of control). In the case of `O=C1CCN(CC(O)c2cccc(F)c2)c2ccc(Cl)cc2CN1C1CC1` (centres unmarked) [Compound 86, 8-chloro-5-cyclopropyl-1-(2-(3-fluorophenyl)-2-hydroxyethyl)-2,3,5,6-tetrahydrobenzo[b][1,5]diazocin-4(1H)-one], the “Insulin secretion” value is reported as 2 (2: 110-120% of control). With `O=C1CCN(C[C@@H](O)COCc2ccccc2)c2ccc3c(c2CN1C1CC1)OCCO3` [Compound 88, 7-[(2R)-3-(benzyloxy)-2-hydroxypropyl]-11-cyclopropyl-2,3,8,9,11,12-hexahydro[1,4]dioxino[2,3-h][1,5]benzodiazocin-10(7H)-one] the “Insulin secretion” value was 1 (1: 90-110% of control). With `COc1ccc2c(c1)CN(C1CC1)C(=O)CCN2C[C@@H](O)COc1ccc(Cl)cc1` [Compound 89, (R)-1-(3-(4-chlorophenoxy)-2-hydroxypropyl)-5-cyclopropyl-8-methoxy-2,3,5,6-tetrahydrobenzo[b][1,5]diazocin-4(1H)-one] the “Insulin secretion” value was 1 (1: 90-110% of control). For `COc1ccc2c(c1)CN(C1CC1)C(=O)CCN2C[C@H](O)COc1ccc(Cl)cc1` [Compound 90, (S)-1-(3-(4-chlorophenoxy)-2-hydroxypropyl)-5-cyclopropyl-8-methoxy-2,3,5,6-tetrahydrobenzo[b][1,5]diazocin-4(1H)-one], the “Insulin secretion” value was 1 (1: 90-110% of control). With `O=C(c1ccno1)N1CCC(=O)N(C2CC2)Cc2c1ccc1c2OCCO1` [Compound 91, 11-cyclopropyl-7-(isoxazol-5-ylcarbonyl)-2,3,8,9,11,12-hexahydro[1,4]dioxino[2,3-h][1,5]benzodiazocin-10(7H)-one] the “Insulin secretion” value was 1 (1: 90-110% of control). In the case of `O=C(c1ncoc1-c1ccccc1)N1CCC(=O)N(C2CC2)Cc2c1ccc1c2OCCO1` [Compound 92, 11-cyclopropyl-7-[(5-phenyl-1,3-oxazol-4-yl)carbonyl]-2,3,8,9,11,12-hexahydro[1,4]dioxino[2,3-h][1,5]benzodiazocin-10(7H)-one], the “Insulin secretion” value is reported as 1 (1: 90-110% of control). In the case of `O=C(CN1CCC(=O)N(C2CC2)Cc2c1ccc1c2OCCO1)c1cccc(F)c1` [Compound 93, 11-cyclopropyl-7-[2-(3-fluorophenyl)-2-oxoethyl]-2,3,8,9,11,12-hexahydro[1,4]dioxino[2,3-h][1,5]benzodiazocin-10(7H)-one], the “Insulin secretion” value is reported as 1 (1: 90-110% of control). `O=C(CN1CCC(=O)N(C2CC2)Cc2c1ccc1c2OCCO1)c1ccc(Cl)cc1` [Compound 94, 7-[2-(4-chlorophenyl)-2-oxoethyl]-11-cyclopropyl-2,3,8,9,11,12-hexahydro[1,4]dioxino[2,3-h][1,5]benzodiazocin-10(7H)-one] was tested, and the “Insulin secretion” value was 1 (1: 90-110% of control). `O=C1CCN(CC(O)COc2ccccc2)c2ccc3c(c2CN1C1CC1)OCCO3` (centres unmarked) [Compound 95, 11-cyclopropyl-7-(2-hydroxy-3-phenoxypropyl)-2,3,8,9,11,12-hexahydro[1,4]dioxino[2,3-h][1,5]benzodiazocin-10(7H)-one] was tested, and the “Insulin secretion” value was 1 (1: 90-110% of control). In the case of `O=C1CCN(CC(O)c2cccc(F)c2)c2ccc3c(c2CN1C1CC1)OCCO3` (centres unmarked) [Compound 96, 11-cyclopropyl-7-[2-(3-fluorophenyl)-2-hydroxyethyl]-2,3,8,9,11,12-hexahydro[1,4]dioxino[2,3-h][1,5]benzodiazocin-10(7H)-one], the “Insulin secretion” value is reported as 3 (3: 120-140% of control). With `O=C1CCN(CC(O)c2ccc(Cl)cc2)c2ccc3c(c2CN1C1CC1)OCCO3` (centres unmarked) [Compound 97, 7-[2-(4-chlorophenyl)-2-hydroxyethyl]-11-cyclopropyl-2,3,8,9,11,12-hexahydro[1,4]dioxino[2,3-h][1,5]benzodiazocin-10(7H)-one] the “Insulin secretion” value was 2 (2: 110-120% of control). `COc1ccc2c(c1)CN(C1CC1)C(=O)CCN2C(=O)c1ncoc1-c1ccccc1` [Compound 98, 5-cyclopropyl-8-methoxy-1-(5-phenyloxazole-4-carbonyl)-2,3,5,6-tetrahydrobenzo[b][1,5]diazocin-4(1H)-one] was tested, and the “Insulin secretion” value was 2 (2: 110-120% of control). In the case of `COc1ccc2c(c1)CN(C1CC1)C(=O)CCN2C(=O)c1cc(C)nn1C` [Compound 99, 5-cyclopropyl-1-(1,3-dimethyl-1H-pyrazole-5-carbonyl)-8-methoxy-2,3,5,6-tetrahydrobenzo[b][1,5]diazocin-4(1H)-one], the “Insulin secretion” value is reported as 1 (1: 90-110% of control). For `COc1ccc2c(c1)CN(C1CC1)C(=O)CCN2C(=O)c1c(C)noc1C` [Compound 100, 5-cyclopropyl-1-(3,5-dimethylisoxazole-4-carbonyl)-8-methoxy-2,3,5,6-tetrahydrobenzo[b][1,5]diazocin-4(1H)-one], the “Insulin secretion” value was 1 (1: 90-110% of control). `COc1ccc2c(c1)CN(C1CC1)C(=O)CCN2C(=O)c1cnccn1` [Compound 101, 5-cyclopropyl-8-methoxy-1-(pyrazine-2-carbonyl)-2,3,5,6-tetrahydrobenzo[b][1,5]diazocin-4(1H)-one] was tested, and the “Insulin secretion” value was 2 (2: 110-120% of control). In the case of `O=C(c1ncoc1-c1ccccc1)N1CCC(=O)N(C2CC2)Cc2cccnc21` [Compound 103, 5-cyclopropyl-1-(5-phenyloxazole-4-carbonyl)-2,3,5,6-tetrahydropyrido[2,3-b][1,5]diazocin-4(1H)-one], the “Insulin secretion” value is reported as 2 (2: 110-120% of control). For `Cc1cc(C(=O)N2CCC(=O)N(C3CC3)Cc3cccnc32)no1` [Compound 104, 5-cyclopropyl-1-(5-methylisoxazole-3-carbonyl)-2,3,5,6-tetrahydropyrido[2,3-b][1,5]diazocin-4(1H)-one], the “Insulin secretion” value was 4 (4: 140-170% of control).
